Assay results reported in US20130183294A1, “METHODS OF USING FGF19 MODULATORS” (GENENTECH, INC., priority 2012, published 2013).

Assays:
Caco-2 monolayers = assay: Caco-2 permeability and taurocholate transport in transwell system; type: cell-based, human; conditions: 50 μM, 24 h, p value<0.001
Description: The Caco-2 human adenocarcinoma cell line and Eagle's Minimum Essential Medium (EMEM) were purchased from ATCC (American Type Culture Collection, Rockville, Md.). Caco-2 cells were seeded on transwell inserts (0.4 μm pore size, Corning, N.Y.) at a density of 1.5×10^5 cells/mL and cultured for 23 days with media changes 3 times per week. On day 23, the cells were treated with either isotype control antibody (100 μg/mL), FGF19 (gp120, Genentech Inc., CA) (500 ng/mL), anti-FGF19 (100 μg/mL), DCA (Sigma-Aldrich, St. Louis, Mo.) (50 μM) or DCA (50 μM) plus anti-FGF19 (100 μg/mL) for 24 h prior to the permeability experiments. The monolayers were equilibrated for 30 min in transport buffer (HBSS with 10 mM HEPES, pH 7.4) at 37° C. and the transepithelial electrical resistance [TEER cm2), membrane area 1.12 cm^2] of each well was measured using the volt-ohm meter and STX-2 electrode. The permeabilities of lucifer yellow (LY), and taurocholate were evaluated in the apical to basolateral (A-B) direction. […] The apparent permeability for taurocholate, and LY (Papp) was calculated using the following equation: Papp=dQ/dt×1/C0A where dQ/dt is the rate of compound appearance in the receiver compartment, C0 is the concentration in the donor compartment and A is the surface area of the insert. […]

Caco-2 cells = assay: Gene expression (qRT-PCR) in intestinal epithelial (Caco-2) cells; type: cell-based, human; conditions: 50 μM, 24 h

## C[C@H](CCC(=O)O)[C@H]1CC[C@H]2[C@@H]3CC[C@@H]4C[C@H](O)CC[C@]4(C)[C@H]3C[C@H](O)[C@]12C [DCA, deoxycholic acid]
Caco-2 monolayers
  taurocholate uptake, reduction vs. control: −80%
Caco-2 cells; p value<0.0001
  IBABP expression increase: > 30 fold
Caco-2 cells; p value<0.0015
  Ost-α expression increase: 2 fold
Caco-2 cells; p value<0.05
  Ost-β expression increase: 1.3 fold
